Source: patent US20230000885A1, “Methods of Treating Psychological and Brain Disorders” (University of Maryland, Baltimore, priority 2019, published 2023)
“Also recorded” adds a separate entry of the source.

How the values were obtained:
5-HTRs = details: read-out: affinities at almost all 5-HTRs; cited from earlier work
5-HT1BRs = 5-HT1BRs (Homo sapiens, UniProt P28222); details: cited from earlier work
male C57BI/6J mice [1] = assay: sucrose preference test (SPT) after chronic multimodal stress (CMMS); assay type: in vivo; details: stress-susceptible CMMS mice; ketanserin 2 mg/kg alone (ketanserin-vehicle); vs values after CMMS
male C57BI/6J mice [2] = assay: female urine sniff test (FUST) after chronic multimodal stress; assay type: in vivo; details: stress-susceptible CMMS mice; ketanserin 2 mg/kg alone; vs values after CMMS
male C57BI/6J mice [3] = assay: locomotion (video, Any-maze) after injection; assay type: in vivo; details: ketanserin 2 mg/kg pretreatment, recorded 90 minutes after second injection, with or without psilocybin
5-HT2Rs = details: cited from earlier work

Chain of 5-HT1BRs (P28222 whole entry): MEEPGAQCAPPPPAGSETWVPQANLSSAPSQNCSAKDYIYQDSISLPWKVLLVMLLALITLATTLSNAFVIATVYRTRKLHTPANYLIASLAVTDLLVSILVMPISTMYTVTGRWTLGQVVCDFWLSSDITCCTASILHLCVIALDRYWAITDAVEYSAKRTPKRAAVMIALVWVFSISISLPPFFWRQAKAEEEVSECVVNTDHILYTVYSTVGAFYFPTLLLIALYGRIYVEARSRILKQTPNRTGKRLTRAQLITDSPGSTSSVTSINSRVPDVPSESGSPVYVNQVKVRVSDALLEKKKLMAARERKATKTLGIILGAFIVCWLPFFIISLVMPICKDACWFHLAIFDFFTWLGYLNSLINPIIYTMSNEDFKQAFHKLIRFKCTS

Row | Compound | Ki (5-HTRs) [nM] | affinity for 5-HT1BRs (5-HT1BRs) | sucrose preference (SP) (male C57BI/6J mice [1]) | preference for female urine (male C57BI/6J mice [2]) | time mobile / mobility (male C57BI/6J mice [3]) | total distance travelled (male C57BI/6J mice [3]) | time mobile / mobility (male C57BI/6J mice [3]; listed as Ketanserin) | acute psilocybin-induced changes in processing of negative emotional stimuli (5-HT2Rs; healthy subjects) | psilocybin-induced self-reported perceptual distortions (5-HT2Rs; humans, ketanserin block of 5-HT2Rs)
1 | CN(C)CCc1c[nH]c2cccc(O)c12 [Psilocin] | 3 to 500 | high affinity |  |  |  |  |  |  | 
2 | O=C(c1ccc(F)cc1)C1CCN(CCn2c(=O)[nH]c3ccccc3c2=O)CC1 [ketanserin, Ketanserin] |  |  | no significant effect on either behavior | nor ketanserin alone (p=0.072; n=4) had a significant effect; also recorded: no significant effect on either behavior | significant effect of ketanserin | main effect of ketanserin | significant increase in mobility | prevented | significantly attenuates self-reported perceptual distortions; also recorded: attenuates psilocybin-induced perceptual alterations
